According to patent publication US20250026747A1, “COLIBACTIN DERIVATIVES AND METHODS OF TREATING, AMELIORATING, AND/OR PREVENTING CANCER” (priority 2021, published 2025):

Experiments:
Assay type in all cases: cell-based, human
HeLa cells [1] = assay: Cell cycle analysis (DNA content histograms) in HeLa cells; details: >11 μM
Method: FIGS. 7A-7B evaluates the Colibactin 742 (4) and its linear precursor 9 recapitulate the clb phenotype. […] HeLa cells were treated with the linear precursor 9 (1-100 μM), colibactin 742 (4) (1-100 μM) or MMC (150 nM) for 4 h. The cells were then washed and incubated for 20 h before immunofluorescence imaging. Cells were considered positive when >5 FANCD2 or γH2AX foci formed. Means and standard deviations of results from at least three independent experiments are shown. FIG. 7B depicts the DNA content histograms upon treatment with colibactin 742 (4, 11 μM) or 9 (11 μM) quantification of the sub-population of the histograms.
DNA content histograms and quantification of the sub-population of the histograms.
It has also been reported that clb^+ bacteria induce cell cycle arrest at the G2/M phase and eventual mitotic catastrophe.

[2] = Cell viability assay (CellTiter-GLO) in HeLa cells; details: human, 72 h, 24 nM to 100 μM, normalized to tamoxifen 60 μM and DMSO, read-out: half-maximal inhibitory potency (IC50), cytotoxicity
Method: (§1) FIGS. 12A-12E show the results of the Cell viability assays. Specifically, HeLa cells were incubated with: (FIG. 12A) compound 9; (FIG. 12B) colibactin 742 (4); (FIG. 12C) compound 22; (FIG. 12D) compound 23; or (FIG. 12E) compound 24 at 24 nM-100 μM for 72 h, according some embodiments. The cells were then incubated with CTG reagent and the luminescence was measured. Results were normalized to DMSO control (0.1%, 0% effect) tamoxifen (60 μM, 100% effect). The points are the averages of twelve measurements (triplicates of four). The lines are four parameters logistic regression (4PL) fit. Error bars represent 95% confidence ranges.
(§2) Experiments to determine if the cyclized and linear forms (colibactin 742 (4) and 9, respectively) are cytotoxic were conducted. As discussed above, the timing of the cyclization events that form the colibactin warheads is not known. To probe this, the instant study measured the cytotoxicity of both the linear precursor 9 and colibactin 742 (4) toward human cervical cancer cells (HeLa). The compounds were incubated for 72 h at concentrations ranging from 24 nM to 100 μM. Cell viability was measured using CellTiter GLO assay and normalized to tamoxifen (60 μM, set at 100% effect) and methyl sulfoxide (DMSO, set at 0% effect). […] Additionally, this observation further supports the notion that while the C36-C37 1,2-diketone may dictate colibactin's half-life within the gut, it may not play a critical role in DNA damage.
(§3) Hela cells were grown in Dulbecco's Modified Eagle Medium (DMEM) supplemented with fetal bovine serum (FBS, 10%) and penicillin-streptomycin (0.1%) at 37° C. in a 95% humidity atmosphere under 5% CO2 environment. Cytotoxicity was determined using a CellTiter-GLO Assay. Cells were seeded at a density of 400 cells to achieve total well volumes of 20 μL in 384-well plates (black with an optically clear bottom, Greiner Bio One 781091) using a Thermo Combidrop liquid dispenser and grown for […] at 37° C., 5% CO2. Cells were grown for 24 h, followed by the addition of test compounds using an Echo acoustic liquid handler (Labcyte). For each tested drug concentration, a 20 nL aliquot of the 1000× stock was added to 20 μL of cells to provide a final DMSO concentration of 0.1%. The compounds were incubated for 72 h at concentrations ranging from 24 nM to 100 μM. Each plate contained negative vehicle control wells (0.1% DMSO) and positive control wells (60 μM tamoxifen). After 72 h, the cells were treated with 10 μL CTG reagent. […] The resulting luminescence was measured using a plate reader (Infinite M1000, TECAN Group AG). Biological triplicates, each measured four times (N=12), for each compound were recorded for each concentration and IC50 values were determined using Prism 9 (Graph Pad) fit with a four parameters nonlinear regression.

HeLa cells [3] = assay: Cell viability assay (CellTiter-GLO) in HeLa cells; details: 72 h, 24 nM to 100 μM
Method: as §1, §2, §3

SMILES | cell cycle arrest at G2/M (HeLa cells [1]) | IC50 [2] [µM] | cytotoxicity (HeLa cells [3])
C[C@H]1CCC(CC(=O)NC2(C(=O)CC(=O)NCC(=O)c3csc(CCc4csc(CNC(=O)CC(=O)C5(NC(=O)CC6=N[C@@H](C)CC6)CC5)n4)n3)CC2)=N1 [compound 9] | accumulation of cells in G2 | 7.2 ± 1.7 | –
C[C@H]1CCC(C2=C(CC(=O)NCC(=O)c3csc(CCc4csc(CNC(=O)CC5=C(C6=N[C@@H](C)CC6)C(=O)NC5(C)C)n4)n3)C(C)(C)NC2=O)=N1 [compound 22] | – | – | showed no toxicity
CCOC(=O)c1csc(CNC(=O)CC2=C(C3=N[C@@H](C)CC3)C(=O)NC23CC3)n1 [compound 23, reference compound] | – | 8.4 ± 2.4 | –
CCOC(=O)c1nc(C2(O)CNC(=O)C2C2=C(C3=N[C@@H](C)CC3)C(=O)NC23CC3)cs1 (some centres unmarked) [compound 24] | – | – | showed no toxicity
